Source: US11945813B2, “5-substituted 4-amino-1H-benzo[c][1,2,6]thiadiazine 2,2-dioxides and formulations and uses thereof” (Firmenich Incorporated, priority 2018, dated 2024)

Target: T1, T1R2/T1R3 taste receptor (Homo sapiens, UniProt Q8TE23)
T1 sequence (Q8TE23 20-839): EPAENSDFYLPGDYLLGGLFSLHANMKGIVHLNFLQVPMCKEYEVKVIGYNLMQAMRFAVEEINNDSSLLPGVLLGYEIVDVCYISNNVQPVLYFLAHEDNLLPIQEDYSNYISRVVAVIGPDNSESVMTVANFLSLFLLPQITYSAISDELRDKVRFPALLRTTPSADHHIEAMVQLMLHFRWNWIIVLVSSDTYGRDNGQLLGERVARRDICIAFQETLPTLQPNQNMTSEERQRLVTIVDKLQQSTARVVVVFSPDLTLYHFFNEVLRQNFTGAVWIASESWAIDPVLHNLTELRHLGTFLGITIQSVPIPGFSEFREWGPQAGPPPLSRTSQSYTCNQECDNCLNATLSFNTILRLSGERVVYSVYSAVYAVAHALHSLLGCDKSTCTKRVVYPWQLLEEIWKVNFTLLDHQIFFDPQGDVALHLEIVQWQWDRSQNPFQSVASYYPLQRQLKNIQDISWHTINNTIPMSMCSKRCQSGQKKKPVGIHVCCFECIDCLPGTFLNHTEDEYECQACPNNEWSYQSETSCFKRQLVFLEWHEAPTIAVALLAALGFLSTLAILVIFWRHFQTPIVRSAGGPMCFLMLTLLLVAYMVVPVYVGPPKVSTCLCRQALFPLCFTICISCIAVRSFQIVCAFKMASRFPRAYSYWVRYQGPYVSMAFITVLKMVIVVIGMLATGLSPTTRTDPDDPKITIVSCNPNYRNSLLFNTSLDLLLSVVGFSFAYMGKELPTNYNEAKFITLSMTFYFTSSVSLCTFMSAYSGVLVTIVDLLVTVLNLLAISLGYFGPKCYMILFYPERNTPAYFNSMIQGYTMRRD
T1 sequence (Q7RTX0 21-852 partner): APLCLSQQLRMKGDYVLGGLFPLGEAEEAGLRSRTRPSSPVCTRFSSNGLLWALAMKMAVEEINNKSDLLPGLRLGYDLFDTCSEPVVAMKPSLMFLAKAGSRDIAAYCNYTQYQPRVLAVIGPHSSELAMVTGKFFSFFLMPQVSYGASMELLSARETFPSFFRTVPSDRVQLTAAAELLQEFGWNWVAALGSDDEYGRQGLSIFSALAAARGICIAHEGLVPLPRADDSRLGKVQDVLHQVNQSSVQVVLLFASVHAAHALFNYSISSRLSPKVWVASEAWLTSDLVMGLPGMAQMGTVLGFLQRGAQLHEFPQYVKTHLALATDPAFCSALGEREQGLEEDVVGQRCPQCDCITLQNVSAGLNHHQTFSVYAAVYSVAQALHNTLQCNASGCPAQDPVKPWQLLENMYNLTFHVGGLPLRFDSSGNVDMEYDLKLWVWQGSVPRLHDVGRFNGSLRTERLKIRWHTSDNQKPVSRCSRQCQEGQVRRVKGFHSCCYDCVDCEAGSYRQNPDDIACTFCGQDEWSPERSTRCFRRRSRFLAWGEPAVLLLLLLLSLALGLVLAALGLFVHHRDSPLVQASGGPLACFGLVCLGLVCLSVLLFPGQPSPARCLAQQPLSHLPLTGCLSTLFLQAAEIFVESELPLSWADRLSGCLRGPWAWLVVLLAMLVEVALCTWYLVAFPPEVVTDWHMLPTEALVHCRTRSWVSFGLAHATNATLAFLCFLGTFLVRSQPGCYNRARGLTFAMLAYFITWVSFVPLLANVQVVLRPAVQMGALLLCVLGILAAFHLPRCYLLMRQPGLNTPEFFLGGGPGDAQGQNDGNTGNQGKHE
Assay: Receptor-based assay: sweetener EC50 alone and with test compound (enhancement ratio)
Type: cell-based
Conditions: for Fructose Enhancement EC50 Ratio: sweetener fructose; for Sucralose Enhancement EC50 Ratio: sweetener sucralose; for Sucrose Enhancement EC50 Ratio: sweetener sucrose
Procedure: Potencies (EC50 values) for the sweeteners sucrose, sucralose, and fructose were measured against the T1R2/T1R3 taste receptor. EC50 was determined using the sweetener alone and in the presence of 3 μM, 10 μM, or 50 μM of test compound. EC50 ratios were calculated by the ratio of potency with and without the test compound. An “A” value indicates an enhancement ratio of greater than 20. A “B” value indicates an enhancement ratio from 10 to 20. A “C” value indicates an enhancement ratio greater than 1 and less than 10.

Row | Compound | Fructose Enhancement EC50 Ratio (10 μM test compound) | Fructose Enhancement EC50 Ratio (50 μM test compound) | Sucralose Enhancement EC50 Ratio (10 μM test compound) | Sucralose Enhancement EC50 Ratio (50 μM test compound) | Sucrose Enhancement EC50 Ratio (3 μM test compound) | Sucrose Enhancement EC50 Ratio (10 μM test compound) | Sucrose Enhancement EC50 Ratio (50 μM test compound)
1 | CCCNC(=O)c1ccnc(N2CCC[C@H](COc3cccc4c3C(N)=NS(=O)(=O)N4)C2)c1 [Compound 602] | C (A “C” value indicates an enhancement ratio greater than 1 and less than 10) | C (A “C” value indicates an enhancement ratio greater than 1 and less than 10) | A (An “A” value indicates an enhancement ratio of greater than 20) | A (An “A” value indicates an enhancement ratio of greater than 20) | C (A “C” value indicates an enhancement ratio greater than 1 and less than 10) | B (A “B” value indicates an enhancement ratio from 10 to 20) | 
2 | NC1=NS(=O)(=O)Nc2cccc(OC[C@H]3CCCN(c4cccc(C(=O)NC5CCCC5)n4)C3)c21 [Compound 408] |  | C (A “C” value indicates an enhancement ratio greater than 1 and less than 10) | A (An “A” value indicates an enhancement ratio of greater than 20) | A (An “A” value indicates an enhancement ratio of greater than 20) | C (A “C” value indicates an enhancement ratio greater than 1 and less than 10) | B (A “B” value indicates an enhancement ratio from 10 to 20) | B (A “B” value indicates an enhancement ratio from 10 to 20)
3 | NC1=NS(=O)(=O)Nc2cccc(OC[C@H]3CCCN(c4cc(C(=O)NC5CC5)ccn4)C3)c21 [Compound 607] | C (A “C” value indicates an enhancement ratio greater than 1 and less than 10) |  |  |  | A (An “A” value indicates an enhancement ratio of greater than 20) | B (A “B” value indicates an enhancement ratio from 10 to 20) | C (A “C” value indicates an enhancement ratio greater than 1 and less than 10)
4 | Cc1cc(C)nc(N2CCC[C@H](COc3cccc4c3C(N)=NS(=O)(=O)N4)C2)n1 [Compound 300, (S)-4-amino-5-((1-(4,6-dimethylpyrimidin-2-yl)piperidin-3-yl)methoxy)-1H-benzo[c][1,2,6]thiadiazine 2,2-dioxide] |  |  | A (An “A” value indicates an enhancement ratio of greater than 20) | A (An “A” value indicates an enhancement ratio of greater than 20) | C (A “C” value indicates an enhancement ratio greater than 1 and less than 10) | C (A “C” value indicates an enhancement ratio greater than 1 and less than 10) | C (A “C” value indicates an enhancement ratio greater than 1 and less than 10)
5 | CC(C)NC(=O)c1ccc(N2CCC[C@H](COc3cccc4c3C(N)=NS(=O)(=O)N4)C2)nc1 [Compound 506] |  |  | A (An “A” value indicates an enhancement ratio of greater than 20) | A (An “A” value indicates an enhancement ratio of greater than 20) | C (A “C” value indicates an enhancement ratio greater than 1 and less than 10) | C (A “C” value indicates an enhancement ratio greater than 1 and less than 10) | C (A “C” value indicates an enhancement ratio greater than 1 and less than 10)
6 | CN1CCN(C(=O)c2cccc(N3CCC[C@H](COc4cccc5c4C(N)=NS(=O)(=O)N5)C3)n2)CC1 [Compound 415] | C (A “C” value indicates an enhancement ratio greater than 1 and less than 10) | C (A “C” value indicates an enhancement ratio greater than 1 and less than 10) |  | A (An “A” value indicates an enhancement ratio of greater than 20) | C (A “C” value indicates an enhancement ratio greater than 1 and less than 10) | C (A “C” value indicates an enhancement ratio greater than 1 and less than 10) | C (A “C” value indicates an enhancement ratio greater than 1 and less than 10)
7 | CNC(=O)c1ccnc(N2CCC[C@H](COc3cccc4c3C(N)=NS(=O)(=O)N4)C2)c1 [Compound 600] |  |  | A (An “A” value indicates an enhancement ratio of greater than 20) | A (An “A” value indicates an enhancement ratio of greater than 20) | C (A “C” value indicates an enhancement ratio greater than 1 and less than 10) |  | B (A “B” value indicates an enhancement ratio from 10 to 20)
8 | CCN(CC)C(=O)c1ccnc(N2CCC[C@H](COc3cccc4c3C(N)=NS(=O)(=O)N4)C2)c1 [Compound 611] | C (A “C” value indicates an enhancement ratio greater than 1 and less than 10) |  | B (A “B” value indicates an enhancement ratio from 10 to 20) | A (An “A” value indicates an enhancement ratio of greater than 20) | C (A “C” value indicates an enhancement ratio greater than 1 and less than 10) | B (A “B” value indicates an enhancement ratio from 10 to 20) | C (A “C” value indicates an enhancement ratio greater than 1 and less than 10)
9 | CC(C)(COc1cccc2c1C(N)=NS(=O)(=O)N2)Nc1ccnc(N2CCOCC2)n1 [Compound 205] |  | C (A “C” value indicates an enhancement ratio greater than 1 and less than 10) | B (A “B” value indicates an enhancement ratio from 10 to 20) | A (An “A” value indicates an enhancement ratio of greater than 20) | C (A “C” value indicates an enhancement ratio greater than 1 and less than 10) | C (A “C” value indicates an enhancement ratio greater than 1 and less than 10) | C (A “C” value indicates an enhancement ratio greater than 1 and less than 10)
10 | NC1=NS(=O)(=O)Nc2cccc(OC[C@H]3CCCN(c4cc(C(=O)N5CCCC5)ccn4)C3)c21 [Compound 612] | C (A “C” value indicates an enhancement ratio greater than 1 and less than 10) | C (A “C” value indicates an enhancement ratio greater than 1 and less than 10) | A (An “A” value indicates an enhancement ratio of greater than 20) | A (An “A” value indicates an enhancement ratio of greater than 20) | C (A “C” value indicates an enhancement ratio greater than 1 and less than 10) | C (A “C” value indicates an enhancement ratio greater than 1 and less than 10) | C (A “C” value indicates an enhancement ratio greater than 1 and less than 10)
11 | CC(C)(COc1cccc2c1C(N)=NS(=O)(=O)N2)Nc1ccccn1 [Compound 101] | C (A “C” value indicates an enhancement ratio greater than 1 and less than 10) |  | A (An “A” value indicates an enhancement ratio of greater than 20) | A (An “A” value indicates an enhancement ratio of greater than 20) | C (A “C” value indicates an enhancement ratio greater than 1 and less than 10) | C (A “C” value indicates an enhancement ratio greater than 1 and less than 10) | C (A “C” value indicates an enhancement ratio greater than 1 and less than 10)
